Measurements published in PMC9867526, “Drug Metabolism of Hepatocyte-like Organoids and Their Applicability in In Vitro Toxicity Testing” (Molecules, 2023).

Columns and labels:
PHH = test: Cytotoxicity (CellTiter-Glo ATP viability) in primary human hepatocytes, 48 h exposure; format: cell-based; conditions: Hepatocyte
Experimental: LiverPool cryoplateable hepatocytes (pool of 10 donors, mixed gender; BioIVT, Hicksville, NY, USA) were cultured in a collagen I (Sigma-Aldrich, St Louis, MO, USA) sandwich in INVITROGRO CP medium (BioIVT) complemented with the TORPEDO Antibiotic mix (BioIVT). Seeding density was 49,000 cells/well in a 96-well plate (cytotoxicity assay) or 350,000 cells/well in a 24-well plate (CYP activity assay), according to the manufacturer’s instructions. Exposure of the hepatocytes was started 48 h after seeding. For exposure assays, INVITROGRO HI medium (BioIVT) was used, as recommended. Cells plated in 96-well plates were exposed to a concentration range (six concentrations in 2x dilution) of five known hepatotoxic compounds for 48 h (single dose). Acetaminophen (CAS 103-90-2; 30 mM) and valproic acid (CAS 1069-66-5; 10 mM) were directly dissolved in assay medium (previously described for each hepatic cell model). […] For the latter, vehicle control (0.5% (v/v) DMSO) was used in the exposure experiments. All chemicals were obtained from Sigma-Aldrich, unless stated otherwise. […] The viability of exposed cells was determined by cellular ATP levels using the CellTiter-Glo Luminescent Cell Viability Assay (Promega, Madison, WI, USA). The CellTiter Glo reagent was prepared according to the manufacturer’s instructions. Briefly, the culture plate was equilibrated at room temperature for 30 min. Medium was removed from the plate, after which phosphate-buffered saline (PBS) and the CellTiter Glo reagent were added to each well in equal volumes. The plate was mixed for 2 min on an orbital shaker and incubated for an additional 10 min at room temperature. Luminescence was measured on the TriStar2 (Berthold Technologies, Bad Wildbad, Germany), and samples were normalized to (vehicle) control.

HL-ICOs = test: Cytotoxicity (CellTiter-Glo ATP viability) in hepatocyte-like intrahepatic cholangiocyte organoids, 48 h exposure; format: cell-based, human
Experimental: The cell suspension was cultured in MatrigelTM (Corning, New York, NY, USA) droplets in expansion medium (EM) until organoids were formed, as previously described. EM consisted of Advanced DMEM/F12 (Life Technologies) supplemented with 1% (v/v) penicillin-streptomycin (Life Technologies), 1% (v/v) GlutaMax (Life Technologies), 10 mM HEPES (4-(2-hydroxyethyl)-1-piperazineethanesulfonic acid, Life Technologies), 2% (v/v) B27 supplement without vitamin A (Invitrogen, Carlsbad, CA, USA), 1% (v/v) N2 supplement (Invitrogen), 10 mM nicotinamide (Sigma-Aldrich, St Louis, MO, USA), 1.25 mM N-acetylcysteine (Sigma-Aldrich), 10% (v/v) R-spondin-1 conditioned medium (the Rspo1-Fc-expressing cell line was a kind gift from Calvin J. Kuo), 10 μM forskolin (Sigma-Aldrich), 5 μM A83-01 (transforming growth factor beta inhibitor; Tocris Bioscience, Bristol, UK), 50 ng/mL EGF (Invitrogen), 25 ng/mL HGF (Peprotech, Rocky Hill, NJ, USA), 0.1 μg/mL FGF10 (Peprotech) and 10 nM recombinant human ([…])-gastrin I (Sigma-Aldrich). Medium was changed twice a week. Passaging occurred every 7-10 days at ratios ranging between 1:2 and 1:4. All cultures were kept in a humidified atmosphere of 95% air and 5% CO2 at 37 °C. Organoids were primed for differentiation with BMP7 (25 ng/mL, Peprotech) through spiking EM 3 days before shifting to hepatic differentiation medium (DM). DM consisted of EM without R-spondin-1, FGF10, and nicotinamide, supplemented with 100 ng/mL FGF19 (Peprotech), 500 nM A83-01 (Tocris Bioscience), 10 μM DAPT (Selleckchem, Munich, Germany), 25 ng/mL BMP-7 (Peprotech), and […] (Sigma-Aldrich). Organoids were kept on DM for up to 12 days. For exposure experiments, differentiation assay medium was prepared to reduce antioxidants in the medium. This assay medium consisted of DMEM GlutaMAX instead of DMEM-F12 medium complemented with the same components as differentiation medium excluding GlutaMAX, B27, and NAC. In 96-well format (cytotoxicity assay), 12,000 cells in 9 μL Matrigel per well were plated at the start of differentiation, and exposure was started at day 10 of differentiation for 48 h. In 24-well format (CYP activity assay), cells were densely plated in a fresh Matrigel droplet (50 μL) upon the start of differentiation, and cells were exposed to the CYP substrate cocktail on day 12 of differentiation. […] Cells plated in 96-well plates were exposed to a concentration range (six concentrations in 2x dilution) of five known hepatotoxic compounds for 48 h (single dose). Acetaminophen (CAS 103-90-2; 30 mM) and valproic acid (CAS 1069-66-5; 10 mM) were directly dissolved in assay medium (previously described for each hepatic cell model). […] For the latter, vehicle control (0.5% (v/v) DMSO) was used in the exposure experiments. All chemicals were obtained from Sigma-Aldrich, unless stated otherwise. […] The viability of exposed cells was determined by cellular ATP levels using the CellTiter-Glo Luminescent Cell Viability Assay (Promega, Madison, WI, USA). The CellTiter Glo reagent was prepared according to the manufacturer's instructions. Briefly, the culture plate was equilibrated at room temperature for 30 min. Medium was removed from the plate, after which phosphate-buffered saline (PBS) and the CellTiter Glo reagent were added to each well in equal volumes. The plate was mixed for 2 min on an orbital shaker and incubated for an additional 10 min at room temperature. Luminescence was measured on the TriStar2 (Berthold Technologies, Bad Wildbad, Germany), and samples were normalized to (vehicle) control.

HepaRG = test: Cytotoxicity (CellTiter-Glo ATP viability) in HepaRG cells, 48 h exposure; format: cell-based; conditions: Homo sapiens
Experimental: Undifferentiated HepaRG cells were purchased from Biopredic International (Saint Grégoire, France). Cells were cultured (passage number between p18 and p28) in T75 flasks in culture medium consisting of William’s E medium (without phenol red; Thermo Fisher Scientific, Waltham, MA, USA) supplemented with 1% (v/v) penicillin-streptomycin (Thermo Fisher Scientific), 10% (v/v) fetal bovine serum (FBS; Thermo Fisher Scientific), 50 µM hydrocortisone 21-hemisuccinate (Sigma-Aldrich, St Louis, MO, USA), 2 mM GlutaMax (Thermo Fisher Scientific) and 5 µg/mL insulin (Sigma-Aldrich). For differentiation, cells were cultured for 7–10 days and upon confluence, the monolayer was switched to differentiation medium (culture medium supplemented with 1% (v/v) DMSO). After differentiation, cells were trypsinized using TrypLE (Thermo Fisher Scientific) and seeded at a density of 65,000 cells/well in a 96-well plate (cytotoxicity assay) or 130,000 cells/well in a 24-well plate (CYP activity assay). Cells were allowed to attach for 24 to 48 h. Before exposure, cells were washed with assay medium (culture medium without FBS), after which exposure was started. Cells plated in 96-well plates were exposed to a concentration range (six concentrations in 2x dilution) of five known hepatotoxic compounds for 48 h (single dose). Acetaminophen (CAS 103-90-2; 30 mM) and valproic acid (CAS 1069-66-5; 10 mM) were directly dissolved in assay medium (previously described for each hepatic cell model). […] For the latter, vehicle control (0.5% (v/v) DMSO) was used in the exposure experiments. All chemicals were obtained from Sigma-Aldrich, unless stated otherwise. […] The viability of exposed cells was determined by cellular ATP levels using the CellTiter-Glo Luminescent Cell Viability Assay (Promega, Madison, WI, USA). The CellTiter Glo reagent was prepared according to the manufacturer’s instructions. Briefly, the culture plate was equilibrated at room temperature for 30 min. Medium was removed from the plate, after which phosphate-buffered saline (PBS) and the CellTiter Glo reagent were added to each well in equal volumes. The plate was mixed for 2 min on an orbital shaker and incubated for an additional 10 min at room temperature. Luminescence was measured on the TriStar2 (Berthold Technologies, Bad Wildbad, Germany), and samples were normalized to (vehicle) control.

[1] = PHH (pool of 10 donors, collagen I sandwich), 48 h single dose, cell viability (ATP)
[2] = HL-ICOs, range over the four ICO donors, 48 h
[3] = Homo sapiens, 48 h, HL-ICOs, range over the four ICO donors
[4] = Homo sapiens, HL-ICOs differentiation day 12, ICO donor in first HL-ICO column, 48 h single dose, cell viability (ATP)
[5] = Homo sapiens, HL-ICOs differentiation day 12, ICO donor in fourth HL-ICO column, 48 h single dose, cell viability (ATP)
[6] = Homo sapiens, HL-ICOs differentiation day 12, ICO donor in second HL-ICO column, 48 h single dose, cell viability (ATP)
[7] = Homo sapiens, HL-ICOs differentiation day 12, ICO donor in third HL-ICO column, 48 h single dose, cell viability (ATP)
[8] = 48 h single dose, median of three independent experiments, minimum and maximum EC50 within brackets
[9] = range of three independent experiments

With `CC(=O)Nc1ccc(O)cc1` [Acetaminophen] the EC50 (PHH; PHH) was 4190 µM, the EC50 (PHH; [1]) was 4190 µM and the EC50 (HL-ICOs; [2]) was 24000 to 24900 µM. It also gave an EC50 (HL-ICOs; [3]) of 24000 to 26800 µM, an EC50 (HL-ICOs; [4]) of 24900 µM and an EC50 (HL-ICOs; [5]) of 24000 µM. It also gave an EC50 (HL-ICOs; [6]) of 24600 µM, an EC50 (HL-ICOs; [7]) of 26800 µM and an EC50 (HepaRG; [8]) of 4040 µM. The EC50 (HepaRG; [9]) was 3460 to 6040 µM.

`O=C(O)Cc1ccccc1Nc1c(Cl)cccc1Cl` [Diclofenac] gave an EC50 (PHH; [1]) of 421 µM, an EC50 (HL-ICOs; Homo sapiens, 48 h, HL-ICOs, the other three ICO donors, higher than highest tested concentration) of over 500 µM and an EC50 (HL-ICOs; [4]) of over 500 µM. For the same compound, the EC50 (HL-ICOs; [6]) was over 500 µM, the EC50 (HL-ICOs; [7]) was over 500 µM and the EC50 (HepaRG; [8]) was 352 µM. The EC50 (HepaRG; [9]) was 272 to 435 µM.

`C1CCC(C(CC2CCCCN2)C2CCCCC2)CC1` (stereo not shown) [Perhexiline] was tested, and the EC50 (PHH; [1]) was 8.07 µM, the cytotoxicity (HL-ICOs; HL-ICOs, three ICO donors, up to 31.5 µM, 48 h) was “no cytotoxicity” and the EC50 (HL-ICOs; [4]) was over 31.5 µM. It also gave an EC50 (HL-ICOs; [5]) of over 31.5 µM, an EC50 (HL-ICOs; [6]) of 9.68 µM and an EC50 (HL-ICOs; [7]) of over 31.5 µM. For the same compound, the EC50 (HepaRG; [8]) was 26 µM and the EC50 (HepaRG; [9]) was 10.5 to 26.4 µM.

For `Cc1c(C)c2c(c(C)c1O)CCC(C)(COc1ccc(CC3SC(=O)NC3=O)cc1)O2` (stereo not shown) [Troglitazone], the EC50 (PHH; [1]) was 57.1 µM, the EC50 (HL-ICOs; [2]) was 23.1 to 90.8 µM and the EC50 (HL-ICOs; [3]) was 23.1 to 90.8 µM. For the same compound, the EC50 (HL-ICOs; [4]) was 42.8 µM, the EC50 (HL-ICOs; [5]) was 24.4 µM and the EC50 (HL-ICOs; [6]) was 90.8 µM. For the same compound, the EC50 (HL-ICOs; [7]) was 23.1 µM, the EC50 (HepaRG; [8]) was 45.1 µM and the EC50 (HepaRG; [9]) was 14.9 to 45.2 µM.

`CCCC(CCC)C(=O)O` [Valproic Acid] showed an EC50 (PHH; PHH) of 9880 µM, an EC50 (PHH; [1]) of 9880 µM and an EC50 (HL-ICOs; [3]) of over 10000 µM. The EC50 (HL-ICOs; [4]) was over 10000 µM, the EC50 (HL-ICOs; [5]) was over 10000 µM and the EC50 (HL-ICOs; [6]) was over 10000 µM. For the same compound, the EC50 (HL-ICOs; [7]) was over 10000 µM, the EC50 (HepaRG; [8]) was 4580 µM and the EC50 (HepaRG; [9]) was 4170 to 6070 µM.
